How the values were obtained:
Type in all cases: in vivo
[1] = tested on: Acyrthosiphon pisum; assay: Example 6 pea trial, Acyrthosiphon pisum (pea aphid) control; settings: appl. A
Source text: Peas—Acyrthosiphon pisum (Pea Aphid)
(§1) Trial conducted on peas, variety Navarro, 4 replicates per plot. Each plot was at least 12 m^2, a water volume of 200 L water per ha was used for the application.
(§2) Insects present at the time of application A: 106 aphids per 20 shoots. The stage of the crop at application A was BBCH 75-77, and at application B, (14 DAA) BBCH 79-81.

[2] = tested on: Myzus persicae; assay: Example 10 potato trial, Myzus persicae (green aphids, MYZUPE) control; settings: appl. AB
Source text: Potatoes—Myzus persicae (Green Aphids)—MYZUPE
Potatoes, variety Agata, 4 replicates per plot. A water volume of 200 L water/ha was used for each application. Two applications were made at a 14d interval.
Application made at the occurrence of the insects. Application A was made at Stage BBCH 38-41, application B was made 14 days later at Stage BBCH 41-43.
Insects present at the time of application: at App A 93 aphids per 25 leaves at App B in untreated: 160 aphids per 25 leaves

[3] = tested on: Tomato; assay: Example 1 phytotoxicity, general injury (PHYGEN) on tomato; settings: appl. A
Source text: “Low Phytotoxicity” of pelargonic acid, as used herein means that the toxic effect on plants is absent or at such a level so as not to adversely impact the growth and/or yield of the plant under a given set of test conditions, e.g., at a given concentration of pelargonic acid. Phytotoxic effects may be measured in a number of different ways, for example, according to the principals set out in OEPP/EPPO Bulletin (2014) 44(3), 265-273 “PP 1/135 (4) Phytotoxicity assessment”. The phytotoxic effect on plants may be assessed visually as a function of the percentage of discoloration to the leaves and/or the appearance of necrosis. When the pelargonic acid compositions are applied to the foliage of the vegetable plants in accordance with the teachings herein, will typically result in a level of phytotoxicity of less than 20%, preferably less than 15%, more preferably less than 10% necrosis of the leaves in comparison to untreated plants. Preferred uses of the invention will typically result in phytotoxicity of 7% or less, whilst the most preferred uses will typically result in phytotoxicity of 5% or less. The above values are approximate as any purely visual assessment is likely to contain a degree of subjectivity.
Trial conducted in 4 replicates on plots of 10 plants each. Application A was made at the occurrence of the insects.

[4] = tested on: Pea; assay: Example 6 phytotoxicity, necrosis/burn (PHYNEC) on pea; design: scale not given here; settings: appl. AB
Source text: as §1, §2

[5] = tested on: Pea; assay: Example 5 phytotoxicity, chlorosis (PHYCHL) on pea; design: scale not given here; settings: appl. AB
Protocol: The trial was conducted on peas, variety Batuta, 4 replicates per plot. A water volume of 200 L water/ha was used for each application. Two applications were made, Application A was made at first infestation and Application B was made 14d later. Each plot at least 12 m^2.

CCCCCCCCC(=O)O [PA, pelargonic acid]
COUINS (count of insects), 20 shoots ([1]; 585 g/ha (0.9 L/ha), 3 DAA (1st column)): 31.44 % UNCK | COUINS (count of insects), 20 shoots ([1]; 585 g/ha (0.9 L/ha), 3 DAA (2nd column)): 31.34 % UNCK | COUINS (count of insects), 20 shoots ([1]; 585 g/ha (0.9 L/ha), 3 DAA (3rd column)): 30.01 % UNCK | COUINS (count of insects), 20 shoots ([1]; 975 g/ha (1.5 L/ha), 3 DAA (1st column)): 34.03 % UNCK | COUINS (count of insects), 20 shoots ([1]; 975 g/ha (1.5 L/ha), 3 DAA (2nd column)): 33.84 % UNCK | COUINS (count of insects), 20 shoots ([1]; 975 g/ha (1.5 L/ha), 3 DAA (3rd column)): 35.76 % UNCK | COUINS (count of insects), 20 shoots ([1]; 1300 g/ha (2.0 L/ha), 3 DAA (1st column)): 52.54 % UNCK | COUINS (count of insects), 20 shoots ([1]; 1300 g/ha (2.0 L/ha), 3 DAA (2nd column)): 52.47 % UNCK | COUINS (count of insects), 20 shoots ([1]; 1300 g/ha (2.0 L/ha), 3 DAA (3rd column)): 53.62 % UNCK | COUINS (count of insects), 20 shoots ([1]; 2600 g/ha (4.0 L/ha), 3 DAA (1st column)): 65.75 % UNCK | COUINS (count of insects), 20 shoots ([1]; 2600 g/ha (4.0 L/ha), 3 DAA (2nd column)): 65.86 % UNCK | COUINS (count of insects), 20 shoots ([1]; 2600 g/ha (4.0 L/ha), 3 DAA (3rd column)): 65.31 % UNCK | COUINS, #/25 leaves ([2]; 585 g/ha (0.9 L/ha), 3 DAA): 38.8 % UNCK | COUINS, #/25 leaves ([2]; 585 g/ha (0.9 L/ha), 3 DAB): 68.8 % UNCK | COUINS, #/25 leaves ([2]; 585 g/ha (0.9 L/ha), 7 DAA): 48.7 % UNCK | COUINS, #/25 leaves ([2]; 585 g/ha (0.9 L/ha), 7 DAB): 68.4 % UNCK | COUINS, #/25 leaves ([2]; 585 g/ha (0.9 L/ha), 14 DAA): 52.3 % UNCK | COUINS, #/25 leaves ([2]; 585 g/ha (0.9 L/ha), 14 DAB): 73.4 % UNCK | COUINS, #/25 leaves ([2]; 975 g/ha (1.5 L/ha), 3 DAA): 42.9 % UNCK | COUINS, #/25 leaves ([2]; 975 g/ha (1.5 L/ha), 3 DAB): 72.6 % UNCK | COUINS, #/25 leaves ([2]; 975 g/ha (1.5 L/ha), 7 DAA): 51.2 % UNCK | COUINS, #/25 leaves ([2]; 975 g/ha (1.5 L/ha), 7 DAB): 72.4 % UNCK | COUINS, #/25 leaves ([2]; 975 g/ha (1.5 L/ha), 14 DAA): 54.9 % UNCK | COUINS, #/25 leaves ([2]; 975 g/ha (1.5 L/ha), 14 DAB): 73.2 % UNCK | COUINS, #/25 leaves ([2]; 1300 g/ha (2.0 L/ha), 3 DAA): 61.9 % UNCK | COUINS, #/25 leaves ([2]; 1300 g/ha (2.0 L/ha), 3 DAB): 86.1 % UNCK | COUINS, #/25 leaves ([2]; 1300 g/ha (2.0 L/ha), 7 DAA): 63.9 % UNCK | COUINS, #/25 leaves ([2]; 1300 g/ha (2.0 L/ha), 7 DAB): 86.1 % UNCK | COUINS, #/25 leaves ([2]; 1300 g/ha (2.0 L/ha), 14 DAA): 67.3 % UNCK | COUINS, #/25 leaves ([2]; 1300 g/ha (2.0 L/ha), 14 DAB): 86.5 % UNCK | COUINS, #/25 leaves ([2]; 2600 g/ha (4.0 L/ha), 3 DAA): 68.4 % UNCK | COUINS, #/25 leaves ([2]; 2600 g/ha (4.0 L/ha), 3 DAB): 92.6 % UNCK | COUINS, #/25 leaves ([2]; 2600 g/ha (4.0 L/ha), 7 DAA): 70.8 % UNCK | COUINS, #/25 leaves ([2]; 2600 g/ha (4.0 L/ha), 7 DAB): 92.5 % UNCK | COUINS, #/25 leaves ([2]; 2600 g/ha (4.0 L/ha), 14 DAA): 74.2 % UNCK | COUINS, #/25 leaves ([2]; 2600 g/ha (4.0 L/ha), 14 DAB): 92.4 % UNCK | Phytotoxicity - General Injury (PHYGEN) ([3]; 650 g/ha (1 L/ha), 0 DAA): 0% | Phytotoxicity - General Injury (PHYGEN) ([3]; 650 g/ha (1 L/ha), 2 DAA): 0% | Phytotoxicity - General Injury (PHYGEN) ([3]; 650 g/ha (1 L/ha), 8 DAA): 0% | Phytotoxicity - General Injury (PHYGEN) ([3]; 650 g/ha (1 L/ha), 15 DAA): 0% | Phytotoxicity - General Injury (PHYGEN) ([3]; 1300 g/ha (2 L/ha), 0 DAA): 0% | Phytotoxicity - General Injury (PHYGEN) ([3]; 1300 g/ha (2 L/ha), 2 DAA): 0% | Phytotoxicity - General Injury (PHYGEN) ([3]; 1300 g/ha (2 L/ha), 8 DAA): 0% | Phytotoxicity - General Injury (PHYGEN) ([3]; 1300 g/ha (2 L/ha), 15 DAA): 0% | Phytotoxicity - General Injury (PHYGEN) ([3]; 2600 g/ha (4 L/ha), 0 DAA): 0% | Phytotoxicity - General Injury (PHYGEN) ([3]; 2600 g/ha (4 L/ha), 2 DAA): 0% | Phytotoxicity - General Injury (PHYGEN) ([3]; 2600 g/ha (4 L/ha), 8 DAA): 0% | Phytotoxicity - General Injury (PHYGEN) ([3]; 2600 g/ha (4 L/ha), 15 DAA): 0% | Phytotoxicity - Necrosis/burn (PHYNEC) ([4]; 585 g/ha (0.9 L/ha), 7 DAA): 0 | Phytotoxicity - Necrosis/burn (PHYNEC) ([4]; 585 g/ha (0.9 L/ha), 14 DAA): 0 | Phytotoxicity - Necrosis/burn (PHYNEC) ([4]; 975 g/ha (1.5 L/ha), 7 DAA): 0 | Phytotoxicity - Necrosis/burn (PHYNEC) ([4]; 975 g/ha (1.5 L/ha), 14 DAA): 0 | Phytotoxicity - Necrosis/burn (PHYNEC) ([4]; 1300 g/ha (2.0 L/ha), 7 DAA): 3 | Phytotoxicity - Necrosis/burn (PHYNEC) ([4]; 1300 g/ha (2.0 L/ha), 14 DAA): 3 | Phytotoxicity - Necrosis/burn (PHYNEC) ([4]; 2600 g/ha (4.0 L/ha), 7 DAA): 37.5 | Phytotoxicity - Necrosis/burn (PHYNEC) ([4]; 2600 g/ha (4.0 L/ha), 14 DAA): 37.5 | Phytotoxicity - Chlorosis (PHYCHL) ([5]; 585 g/ha (0.9 L/ha), 3 DAA): 0 | Phytotoxicity - Chlorosis (PHYCHL) ([5]; 585 g/ha (0.9 L/ha), 3 DAB): 0 | Phytotoxicity - Chlorosis (PHYCHL) ([5]; 585 g/ha (0.9 L/ha), 7 DAA): 0 | Phytotoxicity - Chlorosis (PHYCHL) ([5]; 585 g/ha (0.9 L/ha), 7 DAB): 0 | Phytotoxicity - Chlorosis (PHYCHL) ([5]; 585 g/ha (0.9 L/ha), 14 DAA): 0 | Phytotoxicity - Chlorosis (PHYCHL) ([5]; 585 g/ha (0.9 L/ha), 14 DAB): 0 | Phytotoxicity - Chlorosis (PHYCHL) ([5]; 585 g/ha (0.9 L/ha), Same day A): 0 | Phytotoxicity - Chlorosis (PHYCHL) ([5]; 585 g/ha (0.9 L/ha), Same day B): 0 | Phytotoxicity - Chlorosis (PHYCHL) ([5]; 975 g/ha (1.5 L/ha), 3 DAA): 2 | Phytotoxicity - Chlorosis (PHYCHL) ([5]; 975 g/ha (1.5 L/ha), 3 DAB): 2 | Phytotoxicity - Chlorosis (PHYCHL) ([5]; 975 g/ha (1.5 L/ha), 7 DAA): 2 | Phytotoxicity - Chlorosis (PHYCHL) ([5]; 975 g/ha (1.5 L/ha), 7 DAB): 2 | Phytotoxicity - Chlorosis (PHYCHL) ([5]; 975 g/ha (1.5 L/ha), 14 DAA): 2 | Phytotoxicity - Chlorosis (PHYCHL) ([5]; 975 g/ha (1.5 L/ha), 14 DAB): 0 | Phytotoxicity - Chlorosis (PHYCHL) ([5]; 975 g/ha (1.5 L/ha), Same day A): 0 | Phytotoxicity - Chlorosis (PHYCHL) ([5]; 975 g/ha (1.5 L/ha), Same day B): 3 | Phytotoxicity - Chlorosis (PHYCHL) ([5]; 1300 g/ha (2.0 L/ha), 3 DAA): 5 | Phytotoxicity - Chlorosis (PHYCHL) ([5]; 1300 g/ha (2.0 L/ha), 3 DAB): 6 | Phytotoxicity - Chlorosis (PHYCHL) ([5]; 1300 g/ha (2.0 L/ha), 7 DAA): 6 | Phytotoxicity - Chlorosis (PHYCHL) ([5]; 1300 g/ha (2.0 L/ha), 7 DAB): 6 | Phytotoxicity - Chlorosis (PHYCHL) ([5]; 1300 g/ha (2.0 L/ha), 14 DAA): 4 | Phytotoxicity - Chlorosis (PHYCHL) ([5]; 1300 g/ha (2.0 L/ha), 14 DAB): 0 | Phytotoxicity - Chlorosis (PHYCHL) ([5]; 1300 g/ha (2.0 L/ha), Same day A): 5 | Phytotoxicity - Chlorosis (PHYCHL) ([5]; 1300 g/ha (2.0 L/ha), Same day B): 4 | Phytotoxicity - Chlorosis (PHYCHL) ([5]; 2600 g/ha (4.0 L/ha), 3 DAA): 15 | Phytotoxicity - Chlorosis (PHYCHL) ([5]; 2600 g/ha (4.0 L/ha), 3 DAB): 23 | Phytotoxicity - Chlorosis (PHYCHL) ([5]; 2600 g/ha (4.0 L/ha), 7 DAA): 20 | Phytotoxicity - Chlorosis (PHYCHL) ([5]; 2600 g/ha (4.0 L/ha), 7 DAB): 13 | Phytotoxicity - Chlorosis (PHYCHL) ([5]; 2600 g/ha (4.0 L/ha), 14 DAA): 20 | Phytotoxicity - Chlorosis (PHYCHL) ([5]; 2600 g/ha (4.0 L/ha), 14 DAB): 2 | Phytotoxicity - Chlorosis (PHYCHL) ([5]; 2600 g/ha (4.0 L/ha), Same day A): 15 | Phytotoxicity - Chlorosis (PHYCHL) ([5]; 2600 g/ha (4.0 L/ha), Same day B): 20
